# Data as given in patent US4672068A, “Antihypertensive 1,4-dihydropyridines having a conjugated ester” (Fujirebio Kabushiki Kaisha, priority 1984, dated 1987).
# What was measured:
# [1] = system: Male spontaneously hypertensive rats (SHR), arterial blood pressure; test: Depressor response after intraduodenal administration (1 mg/kg), Table 2; type: in vivo, rat; conditions: for Half-life: '120<' means greater than 120
# Method: Arterial blood pressure was measured through the catherized artery with a pressure transducer (MPU-0.5, manufactured by Nihon Kohden Kabushiki Kaisha). The catheter was inserted into the abdominal aorta via the median coccygcal artery of SHR under light ether anesthesia. The recordings were made on a rectigraph (manufactured by Sanei Sokki Kabushiki Kaisha). The 1,4-dihydropyridine derivatives prepared in the foregoing examples were administered with catheter which was inserted previously into the caudal vein or duodenum at least two hours after the operation. SHR were restrained with wire mesh cage immediately after the operation.
# [2] = system: Male spontaneously hypertensive rats (SHR), arterial blood pressure; test: Depressor response after intravenous administration (30 μg/kg), Table 1; type: in vivo, rat; conditions: for Duration: '90<' means greater than 90
# Method: Male spontaneously hypertensive rats (SHR) which had mean arterial blood pressures higher than 140 mmHg were used for the experiments. Arterial blood pressure was measured through the catherized artery with a pressure transducer (MPU-0.5, manufactured by Nihon Kohden Kabushiki Kaisha). The catheter was inserted into the abdominal aorta via the median coccygcal artery of SHR under light ether anesthesia. The recordings were made on a rectigraph (manufactured by Sanei Sokki Kabushiki Kaisha). The 1,4-dihydropyridine derivatives prepared in the foregoing examples were administered with catheter which was inserted previously into the caudal vein or duodenum at least two hours after the operation. SHR were restrained with wire mesh cage immediately after the operation. Each derivative to be tested was dissolved in 1.5% PVP/ethanol, and then diluted with 0.9% saline or intravenous administration (30 μg/kg), or suspended in 5% gum arabic solution of intraduodenal administration (1 mg/kg).
Molecule,The time to reach the lowest BP [1] [min],ΔBP (Maximum depressor response) [1] [mmHg],Half-life [1] [h],The time to reach the lowest BP [2] [min],ΔBP (Maximum depressor response) [2] [mmHg],Duration [2] [min],halflife (number in parentheses in Duration column) [2] [h]
"COC(=O)C1=C(C)NC(C)=C(C(=O)OC(C)C=Cc2ccccc2)C1c1cccc([N+](=O)[O-])c1 (centres unmarked) [Example 30, 1-methyl-3-phenyl-2-propenyl methyl 4-(3-nitrophenyl)-2,6-dimethyl-1,4-dihydropyridine-3,5-dicarboxylate]",65,89,> 4,5.0,75,> 120,–
"COC(=O)C1=C(C)NC(C)=C(C(=O)OCCC=Cc2cccs2)C1c1cccc([N+](=O)[O-])c1 (stereo not drawn) [Example 11, 4-α-thienyl-3-butenyl methyl 4-(3-nitrophenyl)-2,6-dimethyl-1,4-dihydropyridine-3,5-dicarboxylate]",200,25,4,1.6,60,100,–
"4-(4-methoxyphenyl)-3-butenyl methyl 4-(3-nitrophenyl)-2,6-dimethyl-1,4-dihydropyridine-3,5-dicarboxylate [Example 18]",37,18,2,–,–,–,–
"COC(=O)C1=C(C)NC(C)=C(C(=O)OCCCc2ccccc2)C1c1cccc([N+](=O)[O-])c1 (centres unmarked) [E, 4(3-nitrophenyl)-2,6-dimethyl-1,4-dihydropyridine-3,5-dicarboxylic aci 3methyl ester 5(3-phenyl)-1-propyl ester, reference compound]",–,0,–,–,–,–,–
"C=CCOC(=O)C1=C(C)NC(C)=C(C(=O)OC)C1c1cccc([N+](=O)[O-])c1 (centres unmarked) [C, 4(3-nitrophenyl)-2,6-dimethyl-1,4-dihydropyridine-3,5-dicarboxylic aci 3methyl ester 5allyl ester, reference compound]",8,20,0.333,–,–,–,–
"C#CCOC(=O)C1=C(C)NC(C)=C(C(=O)OC)C1c1cccc([N+](=O)[O-])c1 (centres unmarked) [D, 4(3-nitrophenyl)-2,6-dimethyl-1,4-dihydropyridine-3,5-dicarboxylic aci 3methyl ester 5propargyl ester, reference compound]",–,0,–,–,–,–,–
"CCCC(C=Cc1ccccc1)OC(=O)C1=C(C)NC(C)=C(C(=O)OC)C1c1cccc([N+](=O)[O-])c1 (centres unmarked) [Example 10, 1-propyl-3-phenyl-2-propenyl methyl 4-(3-nitrophenyl)-2,6-dimethyl-1,4-dihydropyridine-3,5-dicarboxylate]",–,–,–,12.5,72,> 90,–
"COC(=O)C1=C(C)NC(C)=C(C(=O)OCC=C(c2ccccc2)c2ccccc2)C1c1cccc([N+](=O)[O-])c1 (centres unmarked) [Example 9, 3,3-diphenyl-2-propenyl methyl 4-(3-nitrophenyl)-2,6-dimethyl-1,4-dihydropyridine-3,5-dicarboxylate]",–,–,–,13,12,> 240,–
"COC(=O)C1=C(C)NC(C)=C(C(=O)OCC(C)=Cc2ccccc2)C1c1cccc([N+](=O)[O-])c1 (centres unmarked) [Example 22, 2-methyl-3-phenyl-2-propenyl methyl 4-(3-nitrophenyl)-2,6-dimethyl-1,4-dihydropyridine-3,5-dicarboxylate]",–,–,–,1.8,50,120,–
"COC(=O)C1=C(C)NC(C)=C(C(=O)OCC=Cc2ccccc2)C1c1ccccc1F (centres unmarked) [Example 40, Cinnamyl methyl 4-(2-fluorophenyl)-2,6-dimethyl-1,4-dihydropyridine-3,5-dicarboxylate]",–,–,–,1.4,60,> 90,–
"COC(=O)C1=C(C)NC(C)=C(C(=O)OCC=CC=Cc2cccc3ccccc23)C1c1cccc([N+](=O)[O-])c1 (centres unmarked) [Example 54, Methyl 5-(1-naphthyl)-2,4-pentadienyl 4-(3-nitrophenyl)-2,6-dimethyl-1,4-dihydropyridine-3,5-dicarboxylate]",–,–,–,6.0,30,> 90,–
"CCOC(=O)C1=C(C)NC(C)=C(C(=O)OC(C)C=Cc2ccccc2)C1c1cccc([N+](=O)[O-])c1 (centres unmarked) [Example 31, 1-methyl-3-phenyl-2-propenyl ethyl 4-(3-nitrophenyl)-2,6-dimethyl-1,4-dihydropyridine-3,5-dicarboxylate]",–,–,–,40,73,> 170,–
"CC=CC=CCOC(=O)C1=C(C)NC(C)=C(C(=O)OCC)C1c1cccc([N+](=O)[O-])c1 (centres unmarked) [Example 67, Ethyl 2,4-hexadienyl 4-(3-nitrophenyl)-2,6-dimethyl-1,4-dihydropyridine-3,5-dicarboxylate]",–,–,–,1.0,72,> 90,0.617
"CC=CC=CCOC(=O)C1=C(C)NC(C)=C(C(=O)OCCC)C1c1cccc([N+](=O)[O-])c1 (centres unmarked) [Example 84, n-propyl 2,4-hexadienyl 4-(3-nitrophenyl)-2,6-dimethyl-1,4-dihydropyridine-3,5-dicarboxylate]",–,–,–,2,35,–,–
"CC=CC=CCOC(=O)C1=C(C)NC(C)=C(C(=O)OCC=CC)C1c1cccc([N+](=O)[O-])c1 (centres unmarked) [Example 78, 2-butenyl 2,4-hexadienyl 4-(3-nitrophenyl)-2,6-dimethyl-1,4-dihydropyridine-3,5-dicarboxylate]",–,–,–,2.4,23,–,–
"COC(=O)C1=C(C)NC(C)=C(C(=O)OCC=C(C)c2ccccc2)C1c1cccc([N+](=O)[O-])c1 (centres unmarked) [Example 5, 3-phenyl-2-butenyl methyl 4-(3-nitrophenyl)-2,6-dimethyl-1,4-dihydropyridine-3,5-dicarboxylate]",–,–,–,1.0,44,65,–
"COC(=O)C1=C(C)NC(C)=C(C(=O)OCCC=Cc2ccsc2)C1c1cccc([N+](=O)[O-])c1 (centres unmarked) [Example 26, 4-(3-thienyl)-3-butenyl methyl 4-(3-nitrophenyl)-2,6-dimethyl-1,4-dihydropyridine-3,5-dicarboxylate]",–,–,–,1.5,47,–,–
"COC(=O)C1=C(C)NC(C)=C(C(=O)OCC=Cc2ccccc2)C1c1cccs1 (centres unmarked) [Example 65, Cinnamyl methyl 4-(2-thienyl)-2,6-dimethyl-1,4-dihydropyridine-3,5-dicarboxylate]",–,–,–,0.3,18,–,–
"COC(=O)C1=C(C)NC(C)=C(C(=O)OCC=CC=Cc2cccs2)C1c1cccc([N+](=O)[O-])c1 (centres unmarked) [Example 51, Methyl 5-(2-thienyl)-2,4-pentadienyl 4-(3-nitrophenyl)-2,6-dimethyl-1,4-dihydropyridine-3,5-dicarboxylate]",–,–,–,2.0,40,> 90,–
"CC=CC=CCOC(=O)C1=C(C)NC(C)=C(C(=O)OCC=CC=CC)C1c1cccc([N+](=O)[O-])c1 (centres unmarked) [Example 73, bis(2,4-hexadienyl) 4-(3-nitrophenyl)-2,6-dimethyl-1,4-dihydropyridine-3,5-dicarboxylate]",–,–,–,6.0,55,> 120,–
"CC=CC=CCOC(=O)C1=C(C)NC(C)=C(C(=O)OCCCC)C1c1cccc([N+](=O)[O-])c1 (centres unmarked) [Example 83, n-butyl 2,4-hexadienyl 4-(3-nitrophenyl)-2,6-dimethyl-1,4-dihydropyridine-3,5-dicarboxylate]",–,–,–,2.6,45,–,–
"CC=CC=CCOC(=O)C1=C(C)NC(C)=C(C(=O)OC(C)C)C1c1cccc([N+](=O)[O-])c1 (centres unmarked) [Example 68, Isopropyl 2,4-hexadienyl 4-(3-nitrophenyl)-2,6-dimethyl-1,4-dihydropyridine-3,5-dicarboxylate]",–,–,–,1.4,60,> 90,0.217
